Where a name gives a salt, the structure may show the parent alone.

In series [1] the test system is tumor necrosis factor (α). Nature of the series: Cytokine induction in human cells: tumor necrosis factor (α) secreted by PBMCs, ELISA. Format: cell-based. As to conditions: PBMC, incubated 18 to 24 hours, TNF determined by ELISA, read-out: Lowest Effective Concentration (μM) Tumor Necrosis Factor. The procedure, abridged:
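Human donor PBMCs at final 1.5-2×10^6 cells/mL in RPMI with 10% FBS incubated 18 to 24 h at 37° C. with serially diluted compound, DMSO at most 1% final. Supernatant TNF-α measured by ELISA; value is the lowest concentration inducing TNF.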

Another series relates to interferon (α). Nature of the series: Cytokine induction in human cells: interferon secreted by PBMCs, ELISA. As to conditions: PBMC, incubated 18 to 24 hours, interferon determined by ELISA, read-out: Lowest Effective Concentration (μM) Interferon. Format: cell-based. An outline of the steps:
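Human donor PBMCs at 1.5-2×10^6 cells/mL final in RPMI with 10% FBS, exposed to serially diluted compound (≤1% DMSO) for 18–24 h at 37 °C, 5% CO2. Supernatant interferon (α) measured by ELISA; value is lowest concentration inducing interferon.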

`Nc1nc2ccccc2c2c1ncn2CCCCNC(=O)CCc1ccccc1` [Example 16, N^1-[4-(4-Amino-1H-imidazo[4,5-c]quinolin-1-yl)butyl]-3-phenylpropanamide]: the melting point was in the range of 148 to 150 °C. In addition, the minimal effective concentration in series [1] stood at 30 µM. Moreover, in the series with interferon (α), the minimal effective concentration stood at 1.11 µM.
Molecule `Nc1nc2ccccc2c2c1ncn2CCNC(=O)c1ccccc1` [Example 13, N^1-[2-(4-Amino-1H-imidazo[4,5-c]quinolin-1-yl)ethyl]benzamide] registered a melting point of 295 °C. The minimal effective concentration in series [1] is 3.33 µM. The minimal effective concentration with interferon (α) worked out at 1.11 µM.
On the same counts, the results for `CC(C)Cc1ccc(C(C)C(=O)NCCCCn2cnc3c(N)nc4ccccc4c32)cc1` (stereo not shown) [Example 46, N^1-[4-(4-Amino-1 H-imidazo[4,5-c]quinolin-1-yl)butyl]-2-(4-isobutylphenyl)propanamide] are 172 to 173 °C, 10 µM and greater than 30 µM.
As to `Nc1nc2ccccc2c2c1ncn2CCCCNC(=O)[C@H]1C[C@@H]1c1ccccc1` (relative stereo) [Example 37, N^1-[4-(4-Amino-1H-imidazo[4,5-c]quinolin-1-yl)butyl]-(trans)-2-phenylcyclopropane-1-carboxamide], the melting point is 77 °C. In series [1], the minimal effective concentration is greater than 30 µM. In addition, the minimal effective concentration in the series on interferon (α) turned out to be 0.37 µM.
Take `Nc1nc2ccccc2c2c1ncn2CCCCNC(=O)c1ccc2ccccc2c1` [Example 43, N^2-[4-(4-Amino-1H-imidazo[4,5-c]quinolin-1-yl)butyl]-2-naphthamide]: the melting point is 257 °C (dec.). In series [1], the minimal effective concentration is greater than 30 µM. The minimal effective concentration with interferon (α) is 0.12 µM.
On the same counts, the results for `Nc1nc2ccccc2c2c1ncn2CCCCNC(=O)c1ccc(-c2ccccc2)cc1` [Example 34, N^1-[4-(4-Amino-1H-imidazo[4,5-c]quinolin-1-yl)butyl]-4-phenylbenzamide] are 215.4 °C (dec.), 3.33 µM and greater than 30 µM.
In the same order, the values of `COCCc1nc2c(N)nc3ccccc3c2n1CC(C)(C)CNC(=O)c1ccccc1` [Example 190, N-{3-[4-amino-2-(2-methoxyethyl)-1H-imidazo[4,5-c]quinolin-1-yl]-2,2-dimethylpropyl}benzamide] are 103 to 125 °C, 0.01 µM and 0.01 µM.
On the same counts, the results for `COCCc1nc2c(N)nc3ccccc3c2n1CCCNC(=O)c1cc2ccccc2cn1` [Example 192, N-{3-[4-amino-2-(2-methoxyethyl)-1H-imidazo[4,5-c]quinolin-1-yl]propyl}isoquinoline-3-carboxamide] are 198 to 198.5 °C, 0.37 µM and 0.12 µM.
The molecule `COCCc1nc2c(N)nc3ccccc3c2n1CCCCNC(=O)c1cc2ccccc2cn1` [Example 181, N-{4-[4-amino-2-(2-methoxyethyl)-1H-imidazo[4,5-c]quinolin-1-yl]butyl}isoquinoline-3-carboxamide] registered a melting point of 199 to 200 °C. For the same molecule, the minimal effective concentration in series [1] amounted to 1.11 µM. In the series with interferon (α), the minimal effective concentration amounted to 0.01 µM.
In the same order, the values of `Nc1nc2ccccc2c2c1ncn2CCCCCCNC(=O)c1ccccc1` [Example 23, N^1-[6-(4-Amino-1H-imidazo[4,5-c]quinolin-1-yl)hexyl]benzamide] are 146 to 155 °C, greater than 30 µM and 1.11 µM.
In the same order, the values of `Nc1nc2ccccc2c2c1ncn2CCCCNC(=O)c1cccc(C(=O)c2ccccc2)c1` [Example 15, N^1-[4-(4-Amino-1H-imidazo[4,5-c]quinolin-1-yl)butyl]-3-benzoylbenzamide] are 103 to 105 °C, greater than 30 µM and 3.33 µM.
Molecule `CCCc1nc2c(N)nc3ccccc3c2n1CCCCNC(=O)c1ccccc1` [Example 3, N^1-[4-(4-Amino-2-propyl-1H-imidazo[4,5-c]quinolin-1-yl)butyl]benzamide] displayed a melting point of 173 to 174 °C. Further, the minimal effective concentration in series [1] is 1.11 µM. Besides, the minimal effective concentration in the series with interferon (α) came to 0.37 µM.
Take `Nc1nc2ccccc2c2c1ncn2CCCCNC(=O)c1ccccc1` [Example 1, N^1-[4-(4-Amino-1H-imidazo[4,5-c]quinolin-1-yl)butyl]benzamide]: the melting point fell in the range of 210 to 212 °C. Besides, the minimal effective concentration in series [1] is 10 µM. Further, the minimal effective concentration in the series on interferon (α) stood at 0.37 µM.
Regarding `Nc1nc2ccccc2c2c1ncn2CCCCNC(=O)c1ccc(N2CCOCC2)nc1` [Example 12, N^3-[4-(4-Amino-1H-imidazo[4,5-c]quinolin-1-yl)butyl]-6-morpholinonicotinamide], the melting point was 160 to 170 °C (dec.). Moreover, the minimal effective concentration in series [1] was greater than 30 µM. For the same molecule, the minimal effective concentration with interferon (α) amounted to 3.33 µM.
On the same counts, the results for `N#Cc1ccc(C(=O)NCCCCn2cnc3c(N)nc4ccccc4c32)cc1` [Example 32, N^1-[4-(4-Amino-1H-imidazo[4,5-c]quinolin-1-yl)butyl]-4-cyanobenzamide] are 222.8 to 225.3 °C, greater than 30 µM and 3.33 µM.
The molecule `Nc1nc2ccccc2c2c1ncn2CCCCNC(=O)c1ccc(C(=O)c2ccccc2)cc1` [Example 20, N^1-[4-(4-Amino-1H-imidazo[4,5-c]quinolin-1-yl)butyl]-4-benzoylbenzamide] yielded a melting point of 159 to 161 °C. Besides, the minimal effective concentration in series [1] is greater than 30 µM. Further, the minimal effective concentration in the series with interferon (α) turned out to be 3.33 µM.
On the same counts, the results for `CCCCC(CC)C(=O)NCCCCn1cnc2c(N)nc3ccccc3c21` (stereo not shown) [Example 36, N^1-[4-(4-Amino-1H-imidazo[4,5-c]quinolin-1-yl)butyl]-2-ethylhexanamide] are 163 to 164 °C, 10 µM and 1.11 µM.
`Nc1nc2ccccc2c2c1ncn2CCCCNC(=O)c1ccncc1` [Example 48, N^4-[4-(4-Amino-1H-imidazo[4,5-c]quinolin-1-yl)butyl]isonicotinamide] registered a melting point of 213 to 213.7 °C.
The same measure, in the same setting: the figure for `COCCc1nc2c(N)nc3ccccc3c2n1CCCCNC(=O)c1cc(-c2ccccc2)nc2ccccc12` [Example 50, N^4-[4-(4-Amino-2-(2-methoxyethyl)-1H-imidazo[4,5-c]quinolin-1-yl)butyl]-2-phenyl-4-quinolinecarboxamide] is 118 °C (dec.).
In turn, `Nc1nc2ccccc2c2c1nc(-c1ccccc1)n2CCCCNC(=O)c1ccc2ccccc2n1` [Example 67, N^2-[4-(4-Amino-2-phenyl-1H-imidazo[4,5-c]quinolin-1-yl)butyl]-2-quinolinecarboxamide] gave a melting point of 81.1 to 83.9 °C.
Same read-out and setting: the result for `CCCCCSc1ncccc1C(=O)NCCCCn1cnc2c(N)nc3ccccc3c21` [Example 51, N^3-[4-(4-Amino-1H-imidazo[4,5-c]quinolin-1-yl)butyl]-2-(pentylsulfanyl)nicotinamide] reads 158 to 161 °C; that for `Nc1nc2ccccc2c2c1ncn2CCCCCNC(=O)c1ccccc1` (as salt: hydrochloride) [Example 10, N^1-[5-(4-Amino-1H-imidazo[4,5-c]quinolin-1-yl)pentyl]benzamide Hydrochloride], 217 to 219 °C.
On the same count and under the same terms, the figure for `Nc1nc2ccccc2c2c1ncn2CCCCNC(=O)c1ccc(Cl)nc1` [Example 53, N^3-[4-(4-Amino-1H-imidazo[4,5-c]quinolin-1-yl)butyl]-6-chloronicotinamide] is 144 to 148 °C (dec.); for `N#Cc1ccc(C(=O)NCCCCn2cnc3c(N)nc4ccccc4c32)cn1` [Example 52, N^3-[4-(4-Amino-1H-imidazo[4,5-c]quinolin-1-yl)butyl]-6-cyanonicotinamide] it is 125 to 129 °C.
Molecule `Nc1nc2ccccc2c2c1ncn2CCCCNC(=O)c1cccnc1` [Example 47, N^3-[4-(4-Amino-1H-imidazo[4,5-c]quinolin-1-yl)butyl]nicotinamide] registered a melting point of 188.6 to 189.5 °C.
`COCCc1nc2c(N)nc3ccccc3c2n1CCCCNC(=O)c1nccc2ccccc12` [Example 57, N^1-{4-[4-Amino-2-(2-methoxyethyl)-1H-imidazo[4,5-c]quinolin-1-yl]butyl}-1-isoquinolinecarboxamide] returned a melting point of 61 to 63 °C.
Turning to `COCCc1nc2c(N)nc3ccccc3c2n1CCCCNC(=O)c1ccc2ccccc2n1` [Example 55, N^2-{4-[4-Amino-2-(2-methoxyethyl)-1H-imidazo[4,5-c]quinolin-1-yl]butyl}-2-quinolinecarboxamide], the melting point fell in the range of 78.1 to 79.9 °C.
Consider `CCCC(=O)NCCCn1c(C)nc2c(N)nc3ccccc3c21` [Example 208, N-[3-(4-amino-2-methyl-1H-imidazo[4,5-c]quinolin-1-yl)propyl]butanamide], for which the melting point lay in the range of 221.8 to 223.3 °C.
The same measure, in the same setting: the result for `Cc1nc2c(N)nc3ccccc3c2n1CCCCNC(=O)C1CCCCC1` [Example 198, N-[4-(4-amino-2-methyl-1H-imidazo[4,5-c]quinolin-1-yl)butyl]cyclohexanecarboxamide] reads 191.6 to 192.6 °C.
The molecule `COCCc1nc2c(N)nc3c(c2n1CCCNC(=O)c1ccccc1)CCCC3` [Example 195, N-{3-[4-amino-2-(2-methoxyethyl)-6,7,8,9-tetrahydro-1H-imidazo[4,5-c]quinolin-1-yl]propyl}benzamide] had a melting point of 167.8 to 169.6 °C.

For the origin of these results see patent US6756382B2, “Amide substituted imidazoquinolines” (3M Innovative Properties Company, priority 1999, dated 2004).
